Results reported in ChEMBL document CHEMBL1201862, “PubChem BioAssay data set” (2004).
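Following 48 hours of exposure in 96-well plates, responses at five concentrations were used to interpolate endpoints linearly. Here, GI50 denotes the concentration required for 50% inhibition of growth.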 Calls of active or inactive are those of the source. No stated cut-off is given here; in the data, active = GI50 up to about 1.1 µM and inactive = higher.

What was measured:
Assay in all cases: NCI anticancer screen, dose series, 48 h
SR = test system: SR
NCI-H23 = test system: NCI-H23
SK-MEL-2 = test system: SK-MEL-2
HOP-62 = test system: HOP-62
K562 = test system: K562
HT-29 = test system: HT-29
SF-539 = test system: SF-539
ACHN = test system: ACHN
RPMI-8226 = test system: RPMI-8226
SNB-75 = test system: SNB-75
SK-MEL-5 = test system: SK-MEL-5
SF-268 = test system: SF-268
CAKI-1 = test system: CAKI-1
DMS-273 = test system: DMS-273
A498 = test system: A498
SK-MEL-28 = test system: SK-MEL-28

Measured: GI50

CC(=O)OC1CCC2C(=CCC3C2(C)C(=O)CC2(C)C(C4(C)OC(C(C)C)=CC4=O)C(O)CC32C)C1(C)C (stereo not given)
inactive: SR 28.4 µM | NCI-H23 63.2 µM | SK-MEL-2 27.1 µM | HOP-62 > 100 µM | K562 35.5 µM | HT-29 17.8 µM | SF-539 18.1 µM | ACHN 40.7 µM | RPMI-8226 22 µM | SNB-75 28.4 µM | SK-MEL-5 23.5 µM | SF-268 28.1 µM | CAKI-1 45 µM | DMS-273 23.3 µM | A498 > 100 µM

CC(=O)OC12C(C)=C(C)C(=O)N1c1ccccc1N2C(C)=O (stereo not given)
inactive: SR > 100 µM | NCI-H23 > 100 µM | SK-MEL-2 > 100 µM | HOP-62 > 100 µM | K562 > 100 µM | HT-29 > 100 µM | ACHN > 100 µM | RPMI-8226 > 100 µM | SNB-75 > 100 µM | SK-MEL-28 33.4 µM | SK-MEL-5 > 100 µM | SF-268 > 100 µM | CAKI-1 > 100 µM | DMS-273 > 100 µM

Cc1c(-c2coc(-c3ccc(Cl)cc3)n2)c(=O)n(-c2ccccc2)n1C
inactive: SR > 100 µM | NCI-H23 > 100 µM | SK-MEL-2 > 100 µM | HOP-62 > 100 µM | HT-29 > 100 µM | SF-539 > 100 µM | ACHN > 100 µM | RPMI-8226 > 100 µM | SNB-75 > 100 µM | SK-MEL-28 > 100 µM | SK-MEL-5 > 100 µM | SF-268 > 100 µM | DMS-273 > 100 µM | A498 > 100 µM

COc1ccc(OC)c(/C=N/N=C(\N)NO)c1
inactive: SR 45.2 µM | NCI-H23 27 µM | SK-MEL-2 42.3 µM | HOP-62 29.6 µM | K562 6.81 µM | HT-29 36.6 µM | SF-539 7.62 µM | ACHN 12.3 µM | SNB-75 72.4 µM | SK-MEL-28 75.7 µM | SF-268 23.3 µM | CAKI-1 8.04 µM | DMS-273 6.31 µM | A498 > 10 µM

CCc1cccc(C(C)C)c1NC(=O)CCl
inactive: SR 71.4 µM | NCI-H23 > 100 µM | SK-MEL-2 > 100 µM | K562 > 100 µM | HT-29 > 100 µM | SF-539 > 100 µM | ACHN 90.2 µM | RPMI-8226 > 100 µM | SNB-75 37.5 µM | SK-MEL-28 > 100 µM | SF-268 > 100 µM | CAKI-1 > 100 µM | DMS-273 > 100 µM
